The target of data set [1] is T1, Human IBAT (Homo sapiens, UniProt Q12908).
T1 construct: expressed in transfected cells; Puromycin selection
T1 sequence (Q12908 1-348): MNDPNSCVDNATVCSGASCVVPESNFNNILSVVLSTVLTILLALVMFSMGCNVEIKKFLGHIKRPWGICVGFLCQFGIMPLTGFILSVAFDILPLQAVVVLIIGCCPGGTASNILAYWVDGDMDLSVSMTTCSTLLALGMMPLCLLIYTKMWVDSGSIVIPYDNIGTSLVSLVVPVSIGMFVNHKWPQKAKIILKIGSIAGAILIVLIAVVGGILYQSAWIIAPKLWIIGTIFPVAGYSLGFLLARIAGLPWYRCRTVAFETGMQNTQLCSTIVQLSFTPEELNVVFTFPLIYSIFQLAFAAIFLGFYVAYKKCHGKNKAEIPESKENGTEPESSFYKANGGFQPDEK
In words: IBAT (h/m) assay, human IBAT-overexpressing cells, 3H-taurocholic acid uptake. Type of data set: cell-based. Particulars: highest test concentration 10 μM, 20 minutes, read-out: hIBAT IC50. The protocol:
10,000 cells (Human or Mouse IBAT-overexpressing cells) were seeded in 96-wells plate (Corning CLS3809) in 200 μL MEM-alpha medium (Gibco 12571-063) supplemented with 10% FBS (Gibco 10438026) containing Puromycin (Gibco A1113803) (10 μg/mL) and incubated at 37° C. in 5% CO2 for 48 hours. After incubation, media was decanted from the wells and cells were washed two times with 300 μL of basal MEM-alpha medium (FBS-free). After decanting basal MEM-alpha medium each time, plates were tapped against paper towel to ensure maximum removal of residual media. Test inhibitor dilutions (highest test concentration being 10 μM, 3-fold serial dilution, 10 points) prepared in DMSO (Sigma D2650) were added in incubation mix (maintaining 0.2% final DMSO concentration) containing 0.25 μM 3H-taurocholic acid (ARC ART-1368) and 5 μM of cold taurocholic acid (Sigma T4009). 50 μL of incubation mix containing test inhibitors was then added to the wells (in duplicate) and the plates were incubated for 20 minutes in a CO2 incubator at 37° C. After incubation, the reaction was stopped by keeping the plates on ice water mix for 2-3 minutes and then the incubation mix was aspirated completely from the wells. The wells were washed two times with 250 μL of chilled unlabeled 1 mM taurocholic acid dissolved in HEPES (Gibco 15630080)-buffered (10 mM) HBSS (Gibco 14175079) (pH 7.4). The plates were tapped against a paper towel after every wash to ensure maximum removal of blocking buffer.
100 μL of MicroScint-20 (PerkinElmer 6013621) was added to the wells and kept overnight at room temperature before reading the plates in TopCount NXT™ Microplate Scintillation and Luminescence Counter from PerkinElmer under 3H Test protocol (set at 120 seconds reading time per well).
(§1) All test compounds were provided in powder form at room temperature. 10 mM DMSO stocks of the test compounds were prepared, aliquoted and stored at −20° C. From the 10 mM DMSO stock of the compounds, a 3-fold serial dilution in DMSO was prepared to get a total of 10 dilutions of the test compounds. 0.5 μL of this dilution in DMSO was added to 250 μL of FBS-free basal media containing 3H-taurocholic acid and cold taurocholic acid to prepare the incubation mixture.

Data set [2] is described as follows: Bidirectional permeability assay (Caco-2 cells). It is filed as in vitro ADME. Particulars: human, 10 μM in FaSSIF buffer; for Papp A→B at 120 min, 10 μM: Caco-2, pH 7.4, absorptive direction (A2B); for Papp B→A at 120 min, 10 μM: Caco-2, pH 7.4, secretory direction (B2A). An excerpt:
HepaRG-Based Assay Protocol

In data set [3] the target is T2, Human LBAT (Homo sapiens, UniProt Q14973).
T2 construct: expressed in transfected cells; Geneticin selection
T2 sequence (Q14973 1-349): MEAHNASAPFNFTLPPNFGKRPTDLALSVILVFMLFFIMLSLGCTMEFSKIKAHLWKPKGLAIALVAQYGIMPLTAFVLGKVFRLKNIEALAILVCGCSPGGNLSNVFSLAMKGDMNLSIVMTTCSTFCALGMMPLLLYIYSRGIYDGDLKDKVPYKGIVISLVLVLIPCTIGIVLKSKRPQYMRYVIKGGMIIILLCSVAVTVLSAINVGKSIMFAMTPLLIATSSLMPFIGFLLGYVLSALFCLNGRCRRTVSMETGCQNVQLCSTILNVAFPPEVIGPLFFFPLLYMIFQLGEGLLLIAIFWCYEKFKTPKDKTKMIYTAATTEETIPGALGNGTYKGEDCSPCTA
In words: LBAT (h/m) assay, human LBAT-overexpressing cells, 3H-taurocholic acid uptake. Type of data set: cell-based. Particulars: 0.3 μM 3H-taurocholic acid and 7.5 μM cold taurocholic acid, 20 minutes, read-out: hLBAT IC50. The protocol: 20,000 cells (Human or Mouse LBAT-overexpressing cells) were seeded in 96-wells plate (Corning CLS3809) in 100 μL MEM-alpha medium (Gibco 12571-063) supplemented with 10% FBS (Gibco 10438026) containing Geneticin (Gibco 10131-027) (1 mg/mL) and incubated at 37° C. in 5% CO2 for 24 hours. After incubation, media was decanted from the wells and cells were washed two times with 300 μL of basal MEM-alpha medium (FBS-free). After decanting basal MEM-alpha medium each time, plates were tapped against paper towel to ensure maximum removal of residual media.
For human LBAT, incubation mix was prepared by adding test inhibitor dilutions (3-fold serial dilution in DMSO (Sigma D2650), 10 points) in MEM-alpha (without FBS) containing 0.3 μM 3H-taurocholic acid (ARC ART-1368) and 7.5 μM cold taurocholic acid (Sigma T4009) (maintaining 0.2% final DMSO concentration). For mouse LBAT, incubation mix was prepared by adding test inhibitor dilutions (3-fold serial dilution in DMSO, 10 points) in MEM-alpha (without FBS) containing 0.3 μM 3H-taurocholic acid and 25 μM cold taurocholic acid maintaining 0.2% final DMSO concentration).
50 μL of incubation mix containing test inhibitors was then added to the wells (in duplicate) and the plates were incubated for 20 minutes in a CO2 incubator at 37° C. After incubation, the reaction was stopped by keeping the plates on ice water mix for 2-3 minutes and then the incubation mix was aspirated completely from the wells. The wells were washed two times with 250 μL of chilled unlabeled 1 mM taurocholic acid dissolved in HEPES (Gibco 15630080)-buffered (10 mM) HBSS (Gibco 14175079) (pH 7.4). The plates were tapped against a paper towel after every wash to ensure maximum removal of blocking buffer.
100 μL of MicroScint-20 (PerkinElmer 6013621) was added to the wells and kept overnight at room temperature before reading the plates in TopCount NXT™ Microplate Scintillation and Luminescence Counter from PerkinElmer under 3H Test protocol (set at 120 seconds reading time per well, with normal plate orientation).
as §1

Data set [4] in a line: Bioavailability studies. It is filed as in vivo, mice (C57BL/6). Particulars: male, mouse, plasma; C57BL/6 mice; single intravenous dose 1 mg/kg and single oral dose 10 mg/kg. As to the method: Male mice (C57BL/6 or CD1) or Wistar rats of 8-9 weeks old were used. For each test compound, two groups of 3 animals each were used. One group was administered a single intravenous dose of 1 mg/kg (vehicle 100% DMSO) through the tail vein and the other group was administered a single oral dose of 10 mg/kg through gavage needle. The group that was administered an oral dose was fasted overnight. Blood samples were collected after 0.083, 0.25, 0.5, 1, 2, 4, 6, 8 and 24 hours following intravenous administration, and after 0.25, 0.5, 1, 2, 4, 6, 8 and 24 hours following oral administration. Blood samples were taken from saphenous vein. 0.2% EDTA was used as the anticoagulant. The samples were analyzed by a discovery grade bioanalytical method developed for the estimation of test compound in plasma, using an LC-MS/MS system.

Data set [5] concerns OATP KO mice. In words: Effect of LBAT selective compounds on serum bile acid levels in OATP KO mice. Type of data set: in vivo. Particulars: for effect on serum bile acid levels: oral administration, FIGS. 1 to 4. An excerpt: Male OATP KO mice (Oatp1a/1b cluster knockout mice, Taconic, USA) aged 8 to 9 weeks were used in the studies. After completion of quarantine and acclimatization period, animals were randomized based on body weight into experimental groups (n=4 mice in each). On the experimental day, a baseline blood sample was collected followed by oral dosing of vehicle (0.5% CMC, 0.1% Tween 80) or compound of Example 3, 6, 13 or 15 at the indicated doses. Blood samples were then collected at various time points after dose (indicated in each graph). Blood was allowed to clot, and serum was collected by centrifugation at 3000 g, 4° C. for 15 minutes and stored at −80° C. for further analysis. The total bile acid concentration in each serum sample was determined by using the CELL BIOLABS Total Bile Acids kit (STA631) according to manufacturer's instructions. Mean±SEM, n=4.

With `CCCCC1CN(c2ccccc2)c2cc(SC)c(O/C=C(\F)C(=O)O)cc2S(=O)(=O)N1` (stereo not drawn) [Example 10, (Z)-3-((3-butyl-7-(methylthio)-1,1-dioxido-5-phenyl-2,3,4,5-tetrahydro-1,2,5-benzothiadiazepin-8-yl)oxy)-2-fluoroacrylic Acid], the IC50 in data set [1] was determined as 1140 nM. In data set [2], this molecule yielded a Papp A→B at 120 min, 10 μM of 0.5 ×10⁻⁶ cm/s and a Papp B→A at 120 min, 10 μM of 1.9 ×10⁻⁶ cm/s. Further, the IC50 in data set [3] is 1 nM.

As for `CCCCC1CN(c2ccccc2)c2cc(SC)c(O/C=C/C(=O)O)cc2S(=O)(=O)C1` (racemic) [Example 1, (E)-3-((3-butyl-7-(methylthio)-1,1-dioxido-5-phenyl-2,3,4,5-tetrahydro-1,5-benzothiazepin-8-yl)oxy)acrylic Acid], the IC50 in data set [1] is at least 10000 nM. In data set [2], this molecule yielded an apical-to-basolateral permeability (Papp A→B) at 120 min, 10 μM of 25.6 ×10⁻⁶ cm/s and a Papp B→A at 120 min, 10 μM of 19.1 ×10⁻⁶ cm/s. For the same molecule, the IC50 in data set [3] was 9.9 nM.

As to `CCCCC1CN(c2ccc(F)cc2)c2cc(SCC)c(O/C=C/C(=O)O)cc2S(=O)(=O)N1C` (racemic) [Example 23, (E)-3-((3-butyl-7-(ethylthio)-5-(4-fluorophenyl)-2-methyl-1,1-dioxido-2,3,4,5-tetrahydro-1,2,5-benzothiadiazepin-8-yl)oxy)acrylic Acid], the values for the IC50 in data set [1] and in data set [3] were 3060 nM and 1 nM, respectively. This molecule registered an apparent permeability from apical to basolateral (Papp A→B) at 120 min, 10 μM in data set [2] of 12.6 ×10⁻⁶ cm/s. Moreover, the Papp B→A at 120 min, 10 μM in data set [2] was 9.3 ×10⁻⁶ cm/s.

As to `CCCC[C@H]1CN(c2ccccc2)c2cc(SC)c(O/C=C/C(=O)O)cc2S(=O)(=O)C1` (single isomer, unassigned) [Example 3], the bioavailability in data set [4] was found to be 50%. Further, the “effect on serum bile acid levels” value in data set [5] is on record as “increased serum bile acid levels”. Besides, in data set [2], the Papp A→B at 120 min, 10 μM amounted to 24 ×10⁻⁶ cm/s and the Papp B→A at 120 min, 10 μM was determined as 18.8 ×10⁻⁶ cm/s. Also, the IC50 in data set [3] stood at 4.8 nM.

For the molecule `CCCCC1CN(c2ccccc2)c2cc(SC)c(O/C=C(\F)C(=O)O)cc2S(=O)(=O)C1` (stereo not drawn) [Example 4, (Z)-3-((3-butyl-7-(methylthio)-1,1-dioxido-5-phenyl-2,3,4,5-tetrahydro-1,5-benzothiazepin-8-yl)oxy)-2-fluoroacrylic Acid], the IC50 in data set [1] turned out to be 1510 nM. Also, in data set [2], the Papp A→B at 120 min, 10 μM was found to be 2.4 ×10⁻⁶ cm/s and the apparent permeability from basolateral to apical (Papp B→A) at 120 min, 10 μM turned out to be 6 ×10⁻⁶ cm/s. For the same molecule, the IC50 in data set [3] was 1.9 nM.

In the case of `CCCC[C@@H]1CN(c2ccccc2)c2cc(SC)c(O/C=C(\F)C(=O)O)cc2S(=O)(=O)C1` (single isomer, unassigned) [Example 6], the IC50 in data set [1] was 1440 nM; in data set [3], 1.4 nM. In addition, in data set [4], the bioavailability is 26%. In data set [5], the “effect on serum bile acid levels” value is reported as “increased serum bile acid levels”. In data set [2], this molecule returned an apical-to-basolateral permeability (Papp A→B) at 120 min, 10 μM of 2.7 ×10⁻⁶ cm/s. Also, the Papp B→A at 120 min, 10 μM in data set [2] was determined as 5.5 ×10⁻⁶ cm/s.

On to `CCCC[C@@H]1CN(c2ccccc2)c2cc(SC)c(O/C=C(\F)C(=O)O)cc2S(=O)(=O)N1C` (single isomer, unassigned) [Example 13], for which the IC50 in data set [1] was determined as 568 nM; in data set [3], 0.6 nM. For the same molecule, the bioavailability in data set [4] came out at 61%. The “serum bile acids levels” value in data set [5] (oral 30 mg/kg, within one hour after dosing) is “about 100 μmol/L”. In data set [5], the “effect on serum bile acid levels” value is listed as “increased serum bile acids in a dose-dependent manner”. The Papp A→B at 120 min, 10 μM in data set [2] was determined as 3.1 ×10⁻⁶ cm/s. Further, the Papp B→A at 120 min, 10 μM in data set [2] was determined as 9.6 ×10⁻⁶ cm/s.

Take `CCCC[C@H]1CN(c2ccccc2)c2cc(SC)c(O/C=C/C(=O)O)cc2S(=O)(=O)N1C` (single isomer, unassigned) [Example 15]: the bioavailability in data set [4] is 50%. The “effect on serum bile acid levels” value in data set [5] was “increased serum bile acid levels”. Also, in data set [2], the apparent permeability from apical to basolateral (Papp A→B) at 120 min, 10 μM is 14.1 ×10⁻⁶ cm/s and the Papp B→A at 120 min, 10 μM amounted to 13 ×10⁻⁶ cm/s. In addition, the IC50 in data set [3] came to 2.2 nM.

Take `CCCC[C@@H]1CN(c2ccccc2)c2cc(SCC)c(O/C=C/C(=O)O)cc2S(=O)(=O)N1C` (single isomer, unassigned) [Example 19]: the IC50 in data set [1] is above 10000 nM; in data set [3], 70 nM.

For `CCCC[C@H]1CN(c2ccccc2)c2cc(SCC)c(O/C=C/C(=O)O)cc2S(=O)(=O)N1C` (single isomer, unassigned) [Example 18], the IC50 in data set [1] was 5280 nM. In data set [2], the Papp A→B at 120 min, 10 μM is 15 ×10⁻⁶ cm/s and the Papp B→A at 120 min, 10 μM came out at 9.7 ×10⁻⁶ cm/s. Moreover, the IC50 in data set [3] was 2.4 nM.

Values taken from patent publication US11708340B2, “Benzothia(di)azepine compounds and their use as bile acid modulators” (Albireo AB, priority 2019, dated 2023).
